Data on three compounds can be found in patent publication US7521570B2, “Medicinal compositions containing 6-hydroxybenzbromarone or salts thereof” (Torli Pharmaceutical Co., Ltd., priority 2004, dated 2009).

Read-outs that look alike come from different tables or passages of the source.

Series [1] is described as follows: Pharmacokinetic test of single dose in rats. The format is in vivo. Conditions: single dose of 100 mg/kg; for Cmax / AUC(0-t): rat, in vivo, po; for AUC(0-t): read-out: AUC0-24hr.
The target of series [2] is T1, human OAT4 (human organic anion transporter 4) (Homo sapiens, UniProt Q9NSA0).
T1 sequence (Q9NSA0 1-550): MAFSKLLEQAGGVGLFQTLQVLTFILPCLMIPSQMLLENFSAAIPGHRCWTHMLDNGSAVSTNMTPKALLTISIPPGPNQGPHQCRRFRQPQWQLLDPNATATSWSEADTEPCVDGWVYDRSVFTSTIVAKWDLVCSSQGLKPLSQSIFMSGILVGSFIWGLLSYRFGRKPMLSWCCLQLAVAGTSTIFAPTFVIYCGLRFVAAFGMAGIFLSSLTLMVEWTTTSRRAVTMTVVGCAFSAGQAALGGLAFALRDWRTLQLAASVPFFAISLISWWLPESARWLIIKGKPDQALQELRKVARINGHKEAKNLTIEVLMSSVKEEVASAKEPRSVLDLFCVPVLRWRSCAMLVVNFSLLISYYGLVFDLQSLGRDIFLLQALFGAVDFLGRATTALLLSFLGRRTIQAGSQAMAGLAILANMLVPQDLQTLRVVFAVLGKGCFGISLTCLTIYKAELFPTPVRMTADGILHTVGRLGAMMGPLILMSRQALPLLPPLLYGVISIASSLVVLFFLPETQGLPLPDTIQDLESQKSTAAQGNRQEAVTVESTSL
Put plainly: Inhibition of 3H-estrone sulfate uptake by OAT4 in S2 cells. The format is cell-based. The note with it: S2 cells expressing OAT4. An excerpt: OAT4 is an organic anion transporter which is present at luminal side membrane of the proximal renal tubule and takes organic anion such as uric acid into cells, and estrone sulfate is known as the typical substrate of this. […] Results are shown in FIG. 6 in the form of relative value while the amount of uptake of ^3H-estrone sulfate in a case where nothing is present (control) is considered to be 100%.

The nature of series [3]: Clinical pharmacokinetic test, single dose of benzbromarone, plasma and urine by LC/MS/MS. The format is in vivo, human. The note with it: for detection in the urine: till 72 hours; for concentration at 72 h: male, human, po, 100 mg as benzbromarone. Here is the method: Next, clinical pharmacokinetic test was carried out for a case where single dose of benzbromarone was given to healthy male adult subjects.
Results of plasma concentration of 6-hydroxybenzbromarone are shown in FIG. 3 and results of urine concentration of the same are shown in FIG. 4, respectively. The vertical axis of FIG. 3 represents plasma level (ng/mL) and the horizontal axis represents time elapsed (hour). […] The vertical axis of FIG. 4 represents concentration in the urine (ng/mL) and the horizontal axis represents time elapsed (hour).

The target of series [4] is T2, human OAT3 (human organic anion transporter 3) (Homo sapiens, UniProt Q8TCC7).
T2 construct: expressed in transfected cells; host or cells: S2 cells expressing OAT3
T2 sequence (Q8TCC7 1-542): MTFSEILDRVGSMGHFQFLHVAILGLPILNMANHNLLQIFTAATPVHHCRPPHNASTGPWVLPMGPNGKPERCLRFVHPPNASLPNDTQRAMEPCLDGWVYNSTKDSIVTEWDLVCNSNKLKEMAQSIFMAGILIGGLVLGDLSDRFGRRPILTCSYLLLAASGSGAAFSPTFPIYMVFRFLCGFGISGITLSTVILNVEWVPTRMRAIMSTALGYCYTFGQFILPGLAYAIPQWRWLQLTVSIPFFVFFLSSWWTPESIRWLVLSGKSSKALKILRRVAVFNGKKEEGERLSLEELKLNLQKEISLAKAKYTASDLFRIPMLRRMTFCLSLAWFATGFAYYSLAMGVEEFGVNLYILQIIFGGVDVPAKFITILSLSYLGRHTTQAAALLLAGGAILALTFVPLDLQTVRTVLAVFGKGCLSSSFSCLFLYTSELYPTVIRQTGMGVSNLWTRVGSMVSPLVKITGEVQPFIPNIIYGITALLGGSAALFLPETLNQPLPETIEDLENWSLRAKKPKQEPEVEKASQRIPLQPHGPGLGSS
The series can be described thus: Inhibition of 3H-estrone sulfate uptake by OAT3 in S2 cells. Format: cell-based. Conditions: for Ki: OAT3, 3H-estrone sulfate uptake. Here is the method: OAT3 is an organic anion transporter which is present at basal-lateral (vascular side) membrane of the proximal renal tubule and takes organic anion such as uric acid into cells, and estrone sulfate is known as the typical substrate of this.
The horizontal axis of FIG. 8 represents 1/S (L/mmol) and the vertical axis represents 1/V (mg protein/μM/min), black square (▪) denotes 6-hydroxybenzbromarone (0.3 μM) case and white square (□) denotes control.

Series [5] concerns the target T3, URAT1 (Homo sapiens, UniProt Q96S37).
T3 construct: expressed in transfected cells
T3 sequence (Q96S37 1-553): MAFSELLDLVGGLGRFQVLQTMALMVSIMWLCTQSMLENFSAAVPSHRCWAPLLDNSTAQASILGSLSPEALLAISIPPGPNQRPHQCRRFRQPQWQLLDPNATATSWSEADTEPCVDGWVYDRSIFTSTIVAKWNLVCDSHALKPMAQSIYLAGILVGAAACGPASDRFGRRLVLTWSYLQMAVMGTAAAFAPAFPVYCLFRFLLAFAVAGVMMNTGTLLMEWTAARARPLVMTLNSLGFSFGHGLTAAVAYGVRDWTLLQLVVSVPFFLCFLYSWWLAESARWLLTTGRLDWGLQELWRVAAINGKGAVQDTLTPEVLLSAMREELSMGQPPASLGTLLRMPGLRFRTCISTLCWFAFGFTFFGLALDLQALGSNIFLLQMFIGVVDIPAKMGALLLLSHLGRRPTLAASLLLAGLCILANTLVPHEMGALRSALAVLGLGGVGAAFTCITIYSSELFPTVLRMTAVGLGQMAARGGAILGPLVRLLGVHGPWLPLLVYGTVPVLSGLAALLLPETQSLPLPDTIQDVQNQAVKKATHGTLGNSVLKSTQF
Put plainly: Inhibition of [14C] uric acid uptake by URAT1 in MDCK-URAT1 cells. Format: cell-based. Conditions: for IC50: MDCK-URAT1 cells, 100 μM [14C] uric acid. Here is the method: cDNA of URAT1 was introduced into MDCK cells and stably expressing cells (MDCK-URAT1) were created. […] Experiments are carried out each three times and level of IC50 was analyzed by profit.
cDNA of URAT1 which was integrated into mammal expression vector pcDNA3.1, or pcDNA3.1 was gene transfected to MDCK cells to create stably expressing cells (MDCK-URAT1) and mock cells.
This MDCK-URAT1 was cultured in the minimal essential medium containing 5% fetal bovine serum and 400 μg/mL geneticin, cells were placed in 24-well dish (as many as 10^5 cells per one well) and cultured for 2 days. After that, it was washed with Dulbecco's modified PBS and subjected to pre-incubation in the Dulbecco's modified PBS solution for 10 min.
After that, it was washed with Dulbecco's modified PBS solution three times and cells were collected by 0.1N NaOH. Scintillation cocktail was then added to count dpm of [^14C] uric acid being taken in cells by liquid scintillation counter. Values of IC50 were analyzed by profit.

For series [6], the target named is T4, xanthine oxidase derived from bovine milk (Bos taurus, UniProt P80457).
T4 construct: xanthine oxidase derived from bovine milk; from tissue; host or cells: bovine milk
T4 sequence (P80457 whole entry): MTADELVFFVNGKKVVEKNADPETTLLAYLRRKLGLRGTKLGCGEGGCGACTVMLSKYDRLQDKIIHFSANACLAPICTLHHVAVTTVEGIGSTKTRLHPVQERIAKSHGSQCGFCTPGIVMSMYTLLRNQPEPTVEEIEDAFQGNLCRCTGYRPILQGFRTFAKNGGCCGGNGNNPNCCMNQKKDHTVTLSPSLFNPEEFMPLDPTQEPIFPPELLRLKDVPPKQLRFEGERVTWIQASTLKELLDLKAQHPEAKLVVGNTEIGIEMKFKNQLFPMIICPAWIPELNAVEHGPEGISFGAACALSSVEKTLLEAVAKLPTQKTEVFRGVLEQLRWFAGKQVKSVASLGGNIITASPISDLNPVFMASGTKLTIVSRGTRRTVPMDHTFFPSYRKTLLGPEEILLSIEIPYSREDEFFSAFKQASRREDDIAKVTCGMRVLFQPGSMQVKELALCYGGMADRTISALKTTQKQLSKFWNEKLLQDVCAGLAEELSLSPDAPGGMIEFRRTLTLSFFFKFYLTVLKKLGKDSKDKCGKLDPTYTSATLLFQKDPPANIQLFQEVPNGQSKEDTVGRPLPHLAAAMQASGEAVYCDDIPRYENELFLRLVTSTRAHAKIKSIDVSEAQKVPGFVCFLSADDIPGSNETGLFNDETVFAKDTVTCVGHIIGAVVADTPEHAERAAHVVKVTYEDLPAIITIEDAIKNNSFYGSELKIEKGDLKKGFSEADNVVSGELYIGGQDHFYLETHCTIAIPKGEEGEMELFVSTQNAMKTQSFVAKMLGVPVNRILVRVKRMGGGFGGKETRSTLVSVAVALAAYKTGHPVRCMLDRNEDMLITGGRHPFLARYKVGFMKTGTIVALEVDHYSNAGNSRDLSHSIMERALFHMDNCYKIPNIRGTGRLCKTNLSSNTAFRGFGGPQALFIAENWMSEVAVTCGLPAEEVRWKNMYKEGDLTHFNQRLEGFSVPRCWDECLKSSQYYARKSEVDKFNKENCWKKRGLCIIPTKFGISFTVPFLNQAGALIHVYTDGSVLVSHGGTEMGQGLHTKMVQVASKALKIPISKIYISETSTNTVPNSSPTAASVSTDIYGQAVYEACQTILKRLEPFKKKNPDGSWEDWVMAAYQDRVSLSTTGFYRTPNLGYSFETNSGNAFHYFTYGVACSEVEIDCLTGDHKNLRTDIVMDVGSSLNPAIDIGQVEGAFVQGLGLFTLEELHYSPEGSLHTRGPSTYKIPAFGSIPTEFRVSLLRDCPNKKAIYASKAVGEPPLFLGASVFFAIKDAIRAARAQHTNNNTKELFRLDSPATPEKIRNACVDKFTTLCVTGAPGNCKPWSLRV
Put plainly: Xanthine oxidase inhibitory activity (absorbance 292 nm, xanthine substrate). The format is biochemical. The note with it: for IC50: 100 μM xanthine, 37° C., pH 7.4, read-out: IC50 level, xanthine oxidase. As for the experimental part:
Subsequently, xanthine oxidase inhibitory activity of 6-hydroxybenzbromarone was investigated. Activity of xanthine oxidase derived from bovine milk was checked as follows: Using 100 μM of xanthine as the substrate, and using a system for measuring chronologically the absorbance (292 nm) of […] generated at 37° C. in 1/15 M phosphate buffer solution (pH 7.4) in which 0.1 M phosphate buffer solution was diluted by half volume of water, inhibitory activity of 6-hydroxybenzbromarone or of oxypurinol that is a metabolic product of allopurinol was measured to analyze IC50.
Activity of xanthine oxidase derived from bovine milk was analyzed as follows.

Where [7] appears, read: healthy male adults, single oral 100 mg benzbromarone.

On to `CCc1oc2ccccc2c1C(=O)c1cc(Br)c(O)c(Br)c1` [benzbromarone], for which, in series [1], the Cmax was found to be 90200 ng/mL and the AUC(0-t) came to 887 µg·h/mL. Moreover, in series [2], the IC50 was found to be 5400 nM. For the same compound, in series [3] (setting [7]), the “time after administration at which eliminated from plasma” value was 48 h and the “detection in the urine” value was “detected little in the urine”. Moreover, the IC50 in series [4] worked out at 700 nM.

`CCc1oc2cc(O)ccc2c1C(=O)c1cc(Br)c(O)c(Br)c1` [6-hydroxybenzbromarone, 2-ethyl-6-hydroxy-3-(3′,5′-dibromo-4′-hydroxy-benzoyl)-benzofuran] showed a Cmax in series [1] of 34600 ng/mL. Further, in series [1], the AUC(0-t) came out at 291 µg·h/mL. Besides, in series [1], the “absorption from the digestive tract into bloodstream” value is on record as “absorbed favorably”. The IC50 in series [5] (37° C. 2 min, three experiments, read-out: level of IC50, uric acid uptake by URAT1, after three times experiments) was 200 ± 60 nM; in series [5] (single experiment shown in figure, read-out: level of IC50, uric acid uptake by URAT1 (FIG. 1 / FIG. 2)), 130 nM; in series [2], 3200 nM; in series [6], 68000 nM; in series [4] (S2 cells expressing OAT3, 3H-estrone sulfate (50 nmol/L)), 300 nM. The “intensity of uric acid uptake inhibition relative to benzbromarone” value in series [5] (fraction of that of benzbromarone) is given as “approximately ⅙”. In addition, the “inhibitory activity of xanthine oxidase relative to oxypurinol” value in series [6] (fraction of that of oxypurinol) is given as “approximately ⅕”. The “AUC in plasma relative to benzbromarone” value in series [3] (setting [7]) was “twice or higher level than that of benzbromarone”. The “detection in the urine” value in series [3] (setting [7]) is recorded as “high level”. Moreover, the concentration at 72 h in series [3] (plasma, read-out: plasma concentration 72 hours after administration) is roughly 110 ng/mL; in series [3] (urine, read-out: urine concentration 72 hours after administration), roughly 170 ng/mL. The “inhibitory style at OAT3” value in series [4] (3H-estrone sulfate uptake, 0.3 μM, FIG. 8) is “mixed type of competitive inhibition and noncompetitive inhibition”. Also, the Ki in series [4] (FIG. 8, read-out: Ki-value (competitive inhibition)) was 1000 nM; in series [4] (FIG. 8, read-out: Ki-value (noncompetitive inhibition)), 700 nM.

For the compound `O=c1[nH]c(=O)c2c[nH]nc2[nH]1` [oxypurinol, reference compound], the IC50 in series [6] was 13000 nM.

For orientation: Cmax means the peak of the concentration-time curve. For orientation: Ki means a dissociation constant, usually derived from enzyme kinetics or from competition with a known ligand.
